Measurements published in US5747447A, “Stable polypeptide composition” (COR Therapeutics, priority 1995, dated 1998).
pIC50: −log10 of the molar value. Where a SMILES comes first, the peptide text is derived from it. Bridges are numbered along the chain shown (N, C = ends). Where no end group is shown, it is not given here. [ ]: non-standard residue; d: D form. Phe(4-Cl) = N[C@@H](Cc1ccc(Cl)cc1)C(=O)O; 2Nal = N[C@@H](Cc1ccc2ccccc2c1)C(=O)O; hArg = N=C(N)NCCCC[C@H](N)C(=O)O; NMeL = CN[C@@H](CC(C)C)C(=O)O; Pen = CC(C)(S)[C@H](N)C(=O)O; NMeS = CN[C@@H](CO)C(=O)O; NMeA = CN[C@@H](C)C(=O)O; Aib = CC(C)(N)C(=O)O; Mpa = O=C(O)CCS; Sar = CNCC(=O)O

The molecules below were run against ADP-induced human platelet aggregation (Homo sapiens, UniProt P05106+P08514) (assay: standard aggregation inhibition assay (ADP-induced human platelet aggregation)). Conditions: ADP-induced human platelet aggregation; read-out: Appr, IC50.
Type: cell-based
Excerpt: 2. Standard assays directly applied to platelet aggregation, such as those described by Gann, Z.-R., et al., J Biol Chem (1988) 263:19827-19832; Huang, T. F., et al., J Biol Chem (1987) 262:16157-16163; Biochemistry (1989) 28:661-666, cited above and incorporated herein by reference;
“Ac-CKGDWPC-NH2 (cysteine pairing not given here) [Analog #47]” gave a pIC50 of 5.60. Acetyl-C-K-G-D-C-NH2 [Analog #8] showed a pIC50 of 3.70. In the case of “CHGDWPC-NH2 (cysteine pairing not given here) [Analog #46]”, the pIC50 was 3.70. In the case of “CKADWPC-NH2 (cysteine pairing not given here) [Analog #37]”, the pIC50 was 4.00. “CKGDFPC-NH2 (cysteine pairing not given here) [Analog #13]” showed a pIC50 of 4.70. With “CKGDIPC-NH2 (cysteine pairing not given here) [Analog #41]” the pIC50 was 4.00. With “CKGDWGC-NH2 (cysteine pairing not given here) [Analog #34]” the pIC50 was 4.00. “CKGDWPC-NH2 (cysteine pairing not given here) [Analog #10]” was tested, and the pIC50 was 5.30. “CKGDYPC-NH2 (cysteine pairing not given here) [Analog #12]” was tested, and the pIC50 was 4.92. With CKGD[Phe(4-Cl)]P-NH2 [Analog #42] the pIC50 was 4.70. For “CKGEWPC-NH2 (cysteine pairing not given here) [Analog #35]”, the pIC50 was less than 3.52. With Mpr-Har-Sar-D-W-P-C-NH2 [Analog #68] the pIC50 was 5.52. Work on “[Mpa]KGD[2Nal]P[Pen]-NH2 (cysteine pairing not given here) [Analog #57]” yielded a pIC50 of 6.00.

Same assay, conditions: PAI activity, Example 15; read-out: Appr.IC20
In the case of `CC(C)C[C@H]1C(=O)N[C@@H](CCCCNC(=N)N)C(=O)NCC(=O)N[C@@H](CC(=O)O)C(=O)N[C@@H](Cc2c[nH]c3ccccc23)C(=O)N2CCC[C@H]2C(=O)N[C@H](C(N)=O)CSSCCC(=O)N1C` [PAI 88, Mpr-(N-Me-Leu)-Har-G-D-W-P-C-NH2] ([Mpa][NMeL][hArg]GDWPC-NH2; disulfide 1-8), the IC20 was 840 nM. `C[C@H]1C(=O)N[C@@H](CCCCNC(=N)N)C(=O)NCC(=O)N[C@@H](CC(=O)O)C(=O)N[C@@H](Cc2c[nH]c3ccccc23)C(=O)N2CCC[C@H]2C(=O)N[C@H](C(N)=O)CSSCCC(=O)N1C` [PAI 89, Mpr-(N-Me-Ala)-Har-G-D-W-P-C-NH2] ([Mpa][NMeA][hArg]GDWPC-NH2; disulfide 1-8) showed an IC20 of 620 nM. For `CN1CC(=O)N[C@@H](CCCCNC(=N)N)C(=O)NCC(=O)N[C@@H](CC(=O)O)C(=O)N[C@@H](Cc2c[nH]c3ccccc23)C(=O)N2CCC[C@H]2C(=O)N[C@H](C(N)=O)CSSCCC1=O` [PAI 90, Mpr-Sar-Har-G-D-W-P-C-NH2] ([Mpa][Sar][hArg]GDWPC-NH2; disulfide 1-8), the IC20 was 270 nM. Molecule `CC(C)[C@@H]1NC(=O)CCSSC[C@@H](C(N)=O)NC(=O)[C@@H]2CCCN2C(=O)[C@H](Cc2c[nH]c3ccccc23)NC(=O)[C@H](CC(=O)O)NC(=O)CNC(=O)[C@H](CCCCNC(=N)N)NC1=O` [PAI 91, Mpr-V-Har-G-D-W-P-C-NH2] ([Mpa]V[hArg]GDWPC-NH2; disulfide 1-8) has an IC20 of 350 nM. With `N=C(N)NCCCC[C@@H]1NC(=O)[C@H](CO)NC(=O)CCSSC[C@@H](C(N)=O)NC(=O)[C@@H]2CCCN2C(=O)[C@H](Cc2c[nH]c3ccccc23)NC(=O)[C@H](CC(=O)O)NC(=O)CNC1=O` [PAI 92, Mpr-S-Har-G-D-W-P-C-NH2] ([Mpa]S[hArg]GDWPC-NH2; disulfide 1-8) the IC20 was 240 nM. For `C[C@@H]1NC(=O)[C@@H]2CCCN2C(=O)[C@H](Cc2c[nH]c3ccccc23)NC(=O)[C@H](CC(=O)O)NC(=O)CNC(=O)[C@H](CCCCNC(=N)N)NC(=O)CCSSC[C@@H](C(N)=O)NC1=O` [PAI 93, Mpr-Har-G-D-W-P-A-C-NH2] ([Mpa][hArg]GDWPAC-NH2; disulfide 1-8), the IC20 was 3330 nM. `C[C@H]1C(=O)N[C@H](C(N)=O)CSSCCC(=O)N[C@@H](CCCCNC(=N)N)C(=O)NCC(=O)N[C@@H](CC(=O)O)C(=O)N[C@@H](Cc2c[nH]c3ccccc23)C(=O)N2CCC[C@H]2C(=O)N1C` [PAI 94, Mpr-Har-G-D-W-P-(N-Me-Ala)-C-NH2] ([Mpa][hArg]GDWP[NMeA]C-NH2; disulfide 1-8) showed an IC20 of 1460 nM. `N=C(N)NCCCC[C@@H]1NC(=O)CCSSC[C@@H](C(N)=O)NC(=O)CNC(=O)[C@@H]2CCCN2C(=O)[C@H](Cc2c[nH]c3ccccc23)NC(=O)[C@H](CC(=O)O)NC(=O)CNC1=O` [PAI 95, Mpr-Har-G-D-W-P-G-C-NH2] ([Mpa][hArg]GDWPGC-NH2; disulfide 1-8) gave an IC20 of 8660 nM. In the case of `C[C@H]1NC(=O)[C@@H]2CCCN2C(=O)[C@H](Cc2c[nH]c3ccccc23)NC(=O)[C@H](CC(=O)O)NC(=O)CNC(=O)[C@H](CCCCNC(=N)N)NC(=O)CCSSC[C@@H](C(N)=O)NC1=O` [PAI 96, Mpr-Har-G-D-W-P-A.dagger.-C-NH2] ([Mpa][hArg]GDWP[dA]C-NH2; disulfide 1-8), the IC20 was 230 nM. For `N=C(N)NCCCC[C@@H]1NC(=O)CCSSC[C@@H](C(N)=O)NC(=O)[C@@H]2CCCN2C(=O)[C@@H]2CCCN2C(=O)[C@H](Cc2c[nH]c3ccccc23)NC(=O)[C@H](CC(=O)O)NC(=O)CNC1=O` [PAI 97, Mpr-Har-G-D-W-P-P-C-NH2] ([Mpa][hArg]GDWPPC-NH2; disulfide 1-8), the IC20 was 1400 nM. `CN1CC(=O)N[C@H](C(N)=O)CSSCCC(=O)N[C@@H](CCCCNC(=N)N)C(=O)NCC(=O)N[C@@H](CC(=O)O)C(=O)N[C@@H](Cc2c[nH]c3ccccc23)C(=O)N2CCC[C@H]2C1=O` [PAI 98, Mpr-Har-G-D-W-P-(Sar)-C-NH2] ([Mpa][hArg]GDWP[Sar]C-NH2; disulfide 1-8) showed an IC20 of 310 nM. With `C[C@@H]1NC(=O)CCSSC(C)(C)[C@@H](C(N)=O)NC(=O)[C@@H]2CCCN2C(=O)[C@H](Cc2c[nH]c3ccccc23)NC(=O)[C@H](CC(=O)O)NC(=O)CNC(=O)[C@H](CCCCNC(=N)N)NC1=O` [PAI 100, Mpr-A-(Har)-G-D-W-P-Pen-NH2] ([Mpa]A[hArg]GDWP[Pen]-NH2; disulfide 1-8) the IC20 was 370 nM. Work on `C[C@@H]1NC(=O)CCSSC(C)(C)[C@@H](C(N)=O)NC(=O)[C@@H]2CCCN2C(=O)[C@H](Cc2c[nH]c3ccccc23)NC(=O)[C@H](CC(=O)O)NC(=O)CNC(=O)[C@H](CCCCN)NC1=O` [PAI 101, Mpr-A-K-G-D-W-P-Pen-NH2] ([Mpa]AKGDWP[Pen]-NH2; disulfide 1-8) yielded an IC20 of 4910 nM. Work on `CC1(C)SSCCC(=O)N[C@@H](CC(=O)O)C(=O)N[C@@H](CCCCNC(=N)N)C(=O)NCC(=O)N[C@@H](CC(=O)O)C(=O)N[C@@H](Cc2c[nH]c3ccccc23)C(=O)N2CCC[C@H]2C(=O)N[C@@H]1C(N)=O` [PAI 102, Mpr-D-(Har)-G-D-W-P-Pen-NH2] ([Mpa]D[hArg]GDWP[Pen]-NH2; disulfide 1-8) yielded an IC20 of 4040 nM. For “Mpr-(N-Me-Ser)-Har-G-D-W-P-C-NH2 ([Mpa][NMeS][hArg]GDWPC-NH2; cysteine pairing not given here) [PAI 85]”, the IC20 was 280 nM. In the case of “Mpr-Har-G-D-W-P-(Aib)-NH2 ([Mpa][hArg]GDWP[Aib]-NH2; SMILES CC(C)(NC(=O)[C@@H]1CCCN1C(=O)[C@H](Cc1c[nH]c2ccccc12)NC(=O)[C@H](CC(=O)O)NC(=O)CNC(=O)[C@H](CCCCNC(=N)N)NC(=O)CCS)C(N)=O) [PAI 99]”, the IC20 was 460 nM.
